Two compounds from patent publication US8889723B2, “Aminoalkyloxazole and aminoalkylthiazolecarboxylic acid amides as regeneration-promoting substances for sensory organs and post-mitotic tissues” (EMC microcollections GmbH, priority 2010, dated 2014) can be followed below.

Entries after “also recorded” stand apart in the source; their conditions may differ.

Series [1] relates to differentiated otic epithelium islands from stem cells isolated from the postnatal organ of Corti. Briefly: In vitro cell culture assay: proportion of Sox2-positive cells (dedifferentiation). It counts as cell-based, mouse. The conditions noted are these: screening assay, FIG. 3; p<0.05, n=10. The protocol:
(§1) First, starting with stem cells with otic development potential isolated from the postnatal organ of Corti of the mouse, typical cellular cluster “spheres” were grown in a suspension culture. Under culture conditions optimized compared to known processes (Oshima et al., 2007; Senn et al., 2007) in a DMEM/F12 medium (Dulbecco's Modified Eagle Medium) supplemented with B27 and N2, about 1600 solid spheres per organ of Corti could be generated from the stem cell culture with added FGF (fibroblast growth factor) and IGF (insulin-like growth factor) (FIG. 1H).
(§2) To this end, the cultivated otospheres were differentiated in a second step under adherent culture conditions on an ornithine/fibronectin surface to give monolayer epithelium islands relatively similar to the original sensory epithelium.
For screening, firstly the proportion of Sox2-positive cells in the in vitro culture was determined. Sox2 is a stem cell marker, which is also expressed during ontogenesis of the organ of Corti. It is thought to have an important role in the pluripotency of embryonal stem cells and during induction of pluripotent stem cells from differentiated cells (Takahashi and Yamanaka, 2006). Accordingly, Sox2 is an important marker, in particular in the context of an induced dedifferentiation/reprogramming of cells.

Series [2] shares this test system. Briefly: In vitro cell culture assay: BrdU-positive cells (proliferation), screening and dose/activity analysis. It counts as cell-based, mouse. The protocol: as §1, §2
If the expression of stem cell markers induced by the compounds is in the end also associated with an increased proliferation of the cells in culture was checked by quantification of the BrdU-positive cells. During substance administration the culture was incubated for 5 h with the thymidine analog BrdU. During the S phase of the cell cycle, cell division results in incorporation of BrdU. If one of the substances stimulates cell division, this can be detected and visualized with an antibody directed against BrdU.
In a dose/activity analysis, the optimum concentration range in which this compound unfolds its maximum regeneration biological effect in the cell culture was determined.
To this end, incorporation of BrdU in the stem cell-based in vitro cell culture assay was determined at 4 concentrations between 0.3 μM and 10 μM in the culture medium. […] From a concentration of 3 μM, the saturation level of about 9% BrdU-positive cells is already reached (FIG. 5).

For series [3], the system named is supportive cells of the organ of Corti. Briefly: In vitro organ culture model: BrdU incorporation after neomycin damage. In kind it is cell-based, mouse. As to conditions: 5 μM, 4 days, after neomycin (1 mM) damage, FIG. 6. The text has this:
To confirm the effects observed in the cell culture assay in the native organ, i.e., in situ in the complex cellular structure of the organ of Corti, use was made of a form of organ culture where the tissue to be cultivated, in the present case the entire inner ear of the mouse, was located in a rotating cylinder filled with culture medium (Hahn et al., 2008). Before the start of the experiment, the cochlea was opened basally and apically in the region of the scala tympani. In this manner, it was possible to minimize the effect of gravity and at the same time to achieve optimum gas and nutrient exchange between the tissue of the organ of Corti and the culture medium. Under these conditions, the explantate could be kept in culture for longer compared to a stationary culture.
(§3) After administration of the ototoxic aminoglycoside antibiotic neomycin (1 mM), ⅔of all sensory hair cells suffered cell death within 24 hours. Only in the apical regions of the cochlea, some sensory hair cells survived, the number of which declined further during the course of the experiment as a result of the initial damage. After removal of the neomycin from the medium, the remaining supportive cells could be cultivated further.
BrdU was then added to the culture medium simultaneously with the compounds (5 μM), and after 4 days the proliferation was quantified by BrdU incorporation.
On the technique in general: Uptake of a labelled nucleoside into DNA is a usual measure of proliferation.

In the next series the test system is organ of Corti. Briefly: In vivo administration after acoustic trauma: regeneration of sensory hair cells (BrdU, myosin VI, DAPI, Sox2 labelling). As to conditions: adult guinea pig, impulse noise damage, 200 μM in Alzet pump intracochlear over 6 weeks, FIG. 7. The text has this:
Acute acoustic damage resulting in a loss of sensory hair cells of the organ of Corti, in particular in the region of the outer sensory hair cells, was caused by impulse noise. The compound N-cyclohexyl-2-[1-amino-2-(1H-indol-3-yl)ethyl]α-azole-4-carboxylic acid amide (3) was then continuously administered locally from a miniosmotic pump (Alzet®), subcutaneously implanted, via choleostomy directly into the scala tympani of the cochlea. The dosage of the substance in the pump was correspondingly higher at 200 μM, taking into account an expected dilution effect in the perilymph.
Administration was over a period of 6 weeks, with a subsequent waiting interval of 2 weeks. In parallel, BrdU was administered via the drinking water or the miniosmotic pump to label proliferating cells in the organ of Corti.
After removal of the organ of Corti, immunohistochemical triple labelling with BrdU (cell division), myosin VI (sensory hair cells) and DAPI (staining of the nuclei) FIGS. 7A to 7E and also with Sox2 (pluripotent supportive cells) was carried out.

The next series relates to sensory hair cells. Description: Ototoxic damage of sensory hair cells in organ culture. It counts as cell-based, mouse. The conditions noted are these: 1 mM, within 24 hours. The protocol: as §3

For `N[C@@H](Cc1c[nH]c2ccccc12)c1nc(C(=O)NC2CCCCC2)co1` [Compound 3, N-cyclohexyl-2-[1-amino-2-(1H-indol-3-yl)ethyl]oxazole-4-carboxylic acid amide], the “proportion of Sox2-expressing cells compared with the differentiation control” value in series [1] is “more than doubled; also recorded: significant positive results”. The “BrdU incorporation in dose/activity analysis” value in series [2] (0.3 μM in culture medium, FIG. 5) is listed as “no significant effect”; in series [2] (1 μM in culture medium, FIG. 5), “the mean was already elevated”. The “BrdU incorporation when concentration increased from 0.3 μM to 3 μM” value in series [2] (adhesion culture, p<0.05, n=10, FIG. 5) is “increased to a significantly higher level”. Also, the “BrdU incorporation at concentrations higher than 3 μM” value in series [2] (adhesion culture, up to 10 μM, FIG. 5) is “could not be increased any further”. Moreover, the “BrdU-positive cells, saturation level in dose/activity analysis” value in series [2] (from 3 μM in culture medium, FIG. 5) is “about 9%”. In addition, the “proportion of BrdU-positive cells (induced proliferation)” value in series [2] (screening assay, 5 h incubation with BrdU, FIG. 4) came out at 4.8%. Besides, the “BrdU incorporation, result in words” value in series [2] (screening assay, 5 h incubation with BrdU, p<0.05, n=10) is “significant positive results”. Also, the “BrdU incorporation into supportive cells (proliferation)” value in series [3] was “BrdU incorporation could be demonstrated in the furthest laterally orientated Deiter's cells; also recorded: new cells in the sense of a regeneration by cell division of supportive cells have been formed; also recorded: BrdU was incorporated into laterally orientated Deiter's cells”; in series [3] (listed as substance 33) it was “BrdU was incorporated into individual inner phalangeal cells and inner border cells”. In addition, the “regeneration of sensory hair cells based on cell division (BrdU labelling)” value in the series on organ of Corti is “BrdU-labelled supportive cells and sensory hair cells were preferably demonstrated in the regions of the organ of Corti damaged by acoustic trauma; also recorded: regeneration of sensory hair cells on the basis of cell divisions can be induced”.
neomycin: in the series with sensory hair cells, the “proportion of all sensory hair cells that suffered cell death” value was “⅔”.
